In EP0104826A2, “Immunomodulator and method of use for immunomodulation” (FUJISAWA PHARMACEUTICAL CO., LTD., priority 1982, dated 1984):

Key:
mouse spleen cells = assay: Mitogen (concanavalin A)-induced mouse spleen cell proliferation, 3H-thymidine incorporation; suppression by immunosuppressive factor and restoration; type: cell-based
Experimental: 1) Preparation of immunosuppressive factor from tumor bearing mice serum.
ICR mice were intraperitonealy inoculated with 0.2 ml of S-180 suspension (5x10^6 cells/ml). S-180 bearing mice were bled from heart under light ether anesthesia with sterile synringe between 7 and 9 days after transplantation and serum was collected.
Immunosuppressive factor was partially purified from the S-180 tumor bearing mice serum according to the method described by SE-KYUNG OH and F.L.MOOLTEN (J. Immunol., 127, 2300-2307, 1981). Briefly, the serum (50 ml) was delipidated with 1/10 vol. of 4% phosphotungstic acid and 1/40 vol of 2M magnesium chloride and centrifuged at 6000 x G for 10 min. Excess phosphotungstic acid and magnesium ion were removed by dialysis against phosphate- buffered saline (PBS: 0.15 M sodium chloride and 0.01 M phosphate buffer, pH 7.4). Then, partially delipidated serum was precipitated with ammonium sulfate at 50% saturation. The supernatant was removed by centrifugation at 20000 x G for 30 min. The precipitates were redissolved in a small volume of water and dialysed against PBS overnight at 4°C. The dialysed solution was chromatographed on Sephadex G-200 column in PBS. Each eluate (15 ml) was assayed for suppressive activity.
Immunosuppressive activity was measured by assay for inhibition of the mitogen-induced mouse spleen cell proliferation.
3) Suppression of mitogen-induced mouse spleen cell proliferation and its restoration by swainsonine in vitro.
Mitogenic activities for mouse spleen cells in vitro : • a) Mice. Female BALB/C strain (8 weeks of age) was used. • b) Tissue culture medium : The tissue culture medium employed was a complete medium designated Roswell Park Memorial Institute(RPMI)-1640. All media employed contained 100 units/ml of penicillin G and 100 µg/ml of streptomycin sulfate and 5% fetal calf serum. • c) Spleen cell preparation : Spleens were removed under sterile conditions and washed with Hanks solution and then teased in the tissue culture medium. The cells were suspended in the tissue culture medium to contain 5 x 10^5 cells/ml. • d) Culture conditions : Into each hole of Microtiteration plate (Falcon No. 3040) were poured 0.1 ml of the above cells suspension and 0.1 ml of the prescribed concentrate of the compound and/or immunosuppressive factor described above. […] The culture was incubated in triplicate at 37°C in a humidified atmosphere (95% air, 5% C02) for 48 hours. • e) Assay for mitogen induced mouse spleen cells proliferation. The mitogen induced mouse spleen cells proliferation was assayed for tritiated thymidine (^3H-thymidine) incorporation. In all tests, 20 pl of 10 micro curie (uCi)/ml of ^3H-thymidine was added to each hole for the 48 hours of culture. After further 24 hours incubation, the culture was terminated.
The resultant cells were filtered with filter paper, Whatman GF83 and washed successively with saline and with 5% trichloroacetic acid. The filter paper was dried and placed in a scintillator(toluene 1 liter containing 0.1 g of p-bis(5-phenyl oxazole)-benzene and 4 g of 2,5-diphenyloxazole), and ^3H-thymidine incorporated into DNA was measured.

[1] = system: mixed lymphocyte culture (MLC)-stimulated spleen cells; assay: Mixed lymphocyte culture (MLC), 3H-thymidine uptake; type: cell-based, mice
Experimental: Female C57BL/6 mice, 8 weeks in age, and female BALB/c mice, 8 weeks in age were sacrificed, spleens were aseptically removed and single cell suspensions were prepared as sources of stimulating and responding cells, respectively. Prior to culture, the stimulator cells were treated with 200 µg/ml of mitomycin C for 45 minutes at 37°C, followed by three washes with PBS.
They were established at a final concentration of 0.2 x 10^6 cells/0.2 ml of reaction mixture and cultured in microtiteration plate (Falcon, No.3040) using RPMI medium supplemented with 10% fetal bovine serum and 5 x 10^-5M 2- mercaptoethanol. The culture was continued for 120 hours and pulse-labeled with ^3H-thymidine for 24 hours before the termination of incubation. The cells were collected and radioactivity was counted.

[2] = system: antibody forming capacities; assay: Antibody forming capacity (PFC-SRBC) in Sarcoma 180 tumor bearing mice; type: in vivo
Experimental: Female ICR(8 weeks in age) mice were intraperitoneally inoculated with 0.2 ml of Sarcoma 180 suspension (5 x 10^6 cells/ml)at day 0. Samples were administered to mice intraperitoneally from 7 days before immunization with 5 x 10^8 SRBC, every day for five days.
The number of direct plaque forming cells per spleen was measured five days after immunization.

[3] = system: antibody forming capacities; assay: Antibody forming capacity (PFC-SRBC) in mice immunosuppressed with cyclophosphamide; type: in vivo
Experimental: Female BDF1 (8 weeks in age) mice were injected intraperitoneally with cyclophosphamide (22.5 mg/kg) 4 days before immunization with 5 x 10^8 SRBC. Samples were administered to mice i.p. from four days before immunization, every day for five days.
Mouse splenic lymphocytes producing antibody against SRBC were quantitated by using Cunningham modification method described previously.

[4] = system: Sarcoma-180 (S-180) cells; assay: Murine transplantable tumor, total tumor cell packed volume in ascites; type: in vivo; details: mice
Experimental: Sarcoma-180 (S-180) cells (1 x 10^6 cells) were inoculated to ICR (female, 8 weeks old) mice intraperitoneally and then after, swainsonine was administered intraperitoneally daily for 5 days. The total tumor cell packed volume in ascites was measured 15 days after tumor cell inoculation.

[5] = swainsonine alone added to mouse spleen cell culture

O[C@H]1[C@H]2[C@H](O)CCCN2C[C@H]1O [Swainsonine]
Con A induced stimulation of ^3H-thymidine incorporation into mouse spleen cell, increase relative to Con A only (mouse spleen cells; Con A and swainsonine added simultaneously): 10 times | ^3H-thymidine uptake (cpm) (mouse spleen cells; Concanavalin A 0.3 µg/well + swainsonine 0.0002 µg/well): 67,017 cpm | ^3H-thymidine uptake (cpm) (mouse spleen cells; Concanavalin A 0.3 µg/well + swainsonine 0.002 µg/well): 105,850 cpm | ^3H-thymidine uptake (cpm) (mouse spleen cells; Concanavalin A 0.3 µg/well + swainsonine 0.02 µg/well): 108,748 cpm | ^3H-thymidine uptake (cpm) (mouse spleen cells; Concanavalin A 0.3 µg/well + swainsonine 0.2 µg/well): 118,071 cpm | ^3H-thymidine uptake (cpm) (mouse spleen cells; Concanavalin A 0.3 µg/well + swainsonine 2 µg/well): 100,480 cpm | ^3H-thymidine uptake (cpm) (mouse spleen cells; Concanavalin A 0.3 µg/well + swainsonine 20 µg/well): 68,778 cpm | ^3H-thymidine uptake (cpm) (mouse spleen cells; Concanavalin A 1 µg/well + Immunosuppressive factor 6 µl/well + swainsonine 0.002 µg/well): 69,313 cpm | ^3H-thymidine uptake (cpm) (mouse spleen cells; Concanavalin A 1 µg/well + Immunosuppressive factor 6 µl/well + swainsonine 0.02 µg/well): 66,858 cpm | ^3H-thymidine uptake (cpm) (mouse spleen cells; Concanavalin A 1 µg/well + Immunosuppressive factor 6 µl/well + swainsonine 0.2 µg/well): 70,890 cpm | ^3H-thymidine uptake (cpm) (mouse spleen cells; Concanavalin A 1 µg/well + Immunosuppressive factor 6 µl/well + swainsonine 2 µg/well): 53,500 cpm | ^3H-thymidine uptake (cpm) (mouse spleen cells; Concanavalin A 1 µg/well + Immunosuppressive factor 6 µl/well + swainsonine 20 µg/well): 37,746 cpm | ^3H-thymidine uptake (cpm) (mouse spleen cells; Swainsonine alone, 0.0002 µg/well): 1,311 cpm | ^3H-thymidine uptake (cpm) (mouse spleen cells; Swainsonine alone, 0.002 µg/well): 1,598 cpm | ^3H-thymidine uptake (cpm) (mouse spleen cells; Swainsonine alone, 0.02 µg/well): 1,712 cpm | ^3H-thymidine uptake (cpm) (mouse spleen cells; Swainsonine alone, 0.2 µg/well): 1,734 cpm | ^3H-thymidine uptake (cpm) (mouse spleen cells; Swainsonine alone, 2 µg/well): 1,726 cpm | ^3H-thymidine uptake (cpm) (mouse spleen cells; Swainsonine alone, 20 µg/well): 1,260 cpm | suppression of mitogenic response by immunosuppressive factor (mouse spleen cells; swainsonine added to culture containing immunosuppressive factor): prevented the suppression | mitogenic activity of mouse spleen cell (mouse spleen cells; [5]): did not affected | spleen cell viability (mouse spleen cells; [5]): did not affected | ^3H-thymidine uptake (cpm) ([1]; MLC with immunosuppressive factor (3 µl) + swainsonine 0.00002 µg/well): 10,449 cpm | ^3H-thymidine uptake (cpm) ([1]; MLC with immunosuppressive factor (3 µl) + swainsonine 0.0002 µg/well): 13,015 cpm | ^3H-thymidine uptake (cpm) ([1]; MLC with immunosuppressive factor (3 µl) + swainsonine 0.002 µg/well): 24,951 cpm | ^3H-thymidine uptake (cpm) ([1]; MLC with immunosuppressive factor (3 µl) + swainsonine 0.02 µg/well): 31,595 cpm | ^3H-thymidine uptake (cpm) ([1]; MLC with immunosuppressive factor (3 µl) + swainsonine 0.2 µg/well): 27,942 cpm | ^3H-thymidine uptake (cpm) ([1]; MLC with immunosuppressive factor (3 µl) + swainsonine 2 µg/well): 23,928 cpm | ^3H-thymidine uptake (cpm) ([1]; MLC with immunosuppressive factor (5 µl) + swainsonine 0.00002 µg/well): 3,737 cpm | ^3H-thymidine uptake (cpm) ([1]; MLC with immunosuppressive factor (5 µl) + swainsonine 0.0002 µg/well): 6,377 cpm | ^3H-thymidine uptake (cpm) ([1]; MLC with immunosuppressive factor (5 µl) + swainsonine 0.002 µg/well): 10,918 cpm | ^3H-thymidine uptake (cpm) ([1]; MLC with immunosuppressive factor (5 µl) + swainsonine 0.02 µg/well): 7,679 cpm | ^3H-thymidine uptake (cpm) ([1]; MLC with immunosuppressive factor (5 µl) + swainsonine 0.2 µg/well): 7,928 cpm | ^3H-thymidine uptake (cpm) ([1]; MLC with immunosuppressive factor (5 µl) + swainsonine 2 µg/well): 6,709 cpm | ^3H-thymidine uptake (cpm) ([1]; MLC with swainsonine 0.00002 µg/well, no immunosuppressive factor): 20,653 cpm | ^3H-thymidine uptake (cpm) ([1]; MLC with swainsonine 0.0002 µg/well, no immunosuppressive factor): 21,823 cpm | ^3H-thymidine uptake (cpm) ([1]; MLC with swainsonine 0.002 µg/well, no immunosuppressive factor): 29,688 cpm | ^3H-thymidine uptake (cpm) ([1]; MLC with swainsonine 0.02 µg/well, no immunosuppressive factor): 33,686 cpm | ^3H-thymidine uptake (cpm) ([1]; MLC with swainsonine 0.2 µg/well, no immunosuppressive factor): 38,077 cpm | ^3H-thymidine uptake (cpm) ([1]; MLC with swainsonine 2 µg/well, no immunosuppressive factor): 33,104 cpm | inhibitory activity of immunosuppressive factor in MLC ([1]; immunosuppressive factor incubated with swainsonine): the inhibitory activity was removed | MLC-stimulated spleen cells ^3H-thymidine uptake ([1]; swainsonine added to MLC): enhanced remarkably | PFC-SRBC/spleen (average number of 5 mice/group) ([2]; ICR mice without tumor, Swainsonine 100 mg/kg i.p.): 118.7 x 10^4 PFC-SRBC/spleen | PFC-SRBC/spleen (average number of 5 mice/group) ([2]; Tumor bearer (Sarcoma 180, ICR mice) + Swainsonine 100 mg/kg i.p., every day for five days): 126.7 x 10^4 PFC-SRBC/spleen | PFC-SRBC/spleen (average number of 5 mice/group) ([2]; Tumor bearer + Swainsonine 3.7 mg/kg i.p.): 61.6 x 10^4 PFC-SRBC/spleen | PFC-SRBC/spleen (average number of 5 mice/group) ([2]; Tumor bearer + Swainsonine 11 mg/kg i.p.): 71.6 x 10^4 PFC-SRBC/spleen | PFC-SRBC/spleen (average number of 5 mice/group) ([2]; Tumor bearer + Swainsonine 33 mg/kg i.p.): 123.5 x 10^4 PFC-SRBC/spleen | capacities to produce antibody against SRBC ([2]; tumor bearing mice): restored the capacities | PFC-SRBC/spleen (average number of 5 mice/group) ([3]; BDF1 mice, Swainsonine 100 mg/kg i.p. alone): 16.54 x 10^4 PFC-SRBC/spleen | PFC-SRBC/spleen (average number of 5 mice/group) ([3]; Cyclophosphamide (22.5 mg/kg) + Swainsonine 3 mg/kg i.p.): 21.53 x 10^4 PFC-SRBC/spleen | PFC-SRBC/spleen (average number of 5 mice/group) ([3]; Cyclophosphamide (22.5 mg/kg) + Swainsonine 11 mg/kg i.p.): 16.52 x 10^4 PFC-SRBC/spleen | PFC-SRBC/spleen (average number of 5 mice/group) ([3]; Cyclophosphamide (22.5 mg/kg) + Swainsonine 33 mg/kg i.p.): 17.19 x 10^4 PFC-SRBC/spleen | PFC-SRBC/spleen (average number of 5 mice/group) ([3]; Cyclophosphamide (22.5 mg/kg) + Swainsonine 100 mg/kg i.p.): 16.48 x 10^4 PFC-SRBC/spleen | capacities to produce antibody against SRBC ([3]; mice injected cyclophosphamide): restored the capacities | growth of transplantable tumors [4]: inhibits growth
